According to patent US7999115B2, “Spiro antibiotic derivatives” (Actelion Pharmaceutical Ltd., priority 2006, dated 2011):
Values after ≈ are worked out from the molar mass of the structure shown.

Tests used:
Type in all cases: cell-based
[1] = system: S. aureus A798; assay: MIC by broth microdilution (NCCLS), S. aureus A798; conditions: cation-adjusted Mueller-Hinton Broth, pH 7.2-7.3; for MIC: Staphylococcus aureus, A798, second table
Experimental: (§1) These assays have been performed following the description given in “Methods for dilution Antimicrobial Susceptibility Tests for Bacteria that Grow Aerobically, 4th ed.; Approved standard: NCCLS Document M7-A4; National Committee for Clinical Laboratory Standards Villanova, Pa., USA, 1997”. Minimal inhibitory concentrations (MICs; mg/l) were determined in cation-adjusted Mueller-Hinton Broth (BBL) by a microdilution method following NCCLS guidelines (National Committee for Clinical Laboratory Standards. Methods for Dilution Antimicrobial Susceptibility). The pH of the test medium was 7.2-7.3. All Example compounds were tested against several Gram positive and Gram negative bacteria.

[2] = system: M. catarrhalis A894; assay: MIC by broth microdilution (NCCLS), M. catarrhalis A894; conditions: cation-adjusted Mueller-Hinton Broth, pH 7.2-7.3
Experimental: as §1

[3] = system: S. pneumoniae 49619; assay: MIC by broth microdilution (NCCLS), S. pneumoniae 49619; conditions: cation-adjusted Mueller-Hinton Broth, pH 7.2-7.3
Experimental: as §1

Molecule | MIC S. aureus A798 ([1]; second table) | further results
COc1ccc2nccc(/C=C/C3CCC4(CC3)CN(c3ccc5c(c3)OCCO5)C(=O)O4)c2c1 (mixture of isomers) [Example 17, cis/trans-3-(2,3-dihydro-benzo[1,4]dioxin-6-yl)-8-[(E)-2-(6-methoxy-quinolin-4-yl)-vinyl]-1-oxa-3-aza-spiro[4.5]decan-2-one] | 2 mg/L | –
COc1ccc2nccc(C(O)CN3CCC4(CC3)CN(c3ccc5c(c3)OCCO5)C(=O)O4)c2c1 (racemic) [Example 4, 3-(2,3-dihydro-benzo[1,4]dioxin-6-yl)-8-[(2RS)-2-hydroxy-2-(6-methoxy-quinolin-4-yl)-ethyl]-1-oxa-3,8-diaza-spiro[4.5]decan-2-one] | – | MIC [1]: ≤ 0.031 µg/mL
COc1ccc2nccc(C(O)CN3CCC4(CC3)CN(c3ccc5c(c3)NC(=O)CS5)C(=O)O4)c2c1 (racemic) [Example 5, 6-{8-[(2RS)-2-hydroxy-2-(6-methoxy-quinolin-4-yl)-ethyl]-2-oxo-1-oxa-3,8-diaza-spiro[4.5]dec-3-yl}-4H-benzo[1,4]thiazin-3-one] | – | MIC [1]: ≤ 0.031 µg/mL
C=CC[C@@H]1CN(C[C@H](O)c2ccnc3ccc(OC)cc23)CC[C@]12CN(c1ccc3c(c1)OCCO3)C(=O)O2 (racemic) [Example 6, (5RS, 6RS)-6-allyl-3-(2,3-dihydro-benzo[1,4]dioxin-6-yl)-8-[(2RS)-2-hydroxy-2-(6-methoxy-quinolin-4-yl)-ethyl]-1-oxa-3,8-diaza-spiro[4.5]decan-2-one] | – | MIC [1]: 1 µg/mL (≈ 1.88 µM)
COC(=O)C[C@@H]1CN(C[C@H](O)c2ccnc3ccc(OC)cc23)CC[C@]12CN(c1ccc3c(c1)OCCO3)C(=O)O2 (racemic) [Example 7, (5RS,6RS)-{3-(2,3-dihydro-benzo[1,4]dioxin-6-yl)-8-[(2RS)-2-hydroxy-2-(6-methoxy-quinolin-4-yl)-ethyl]-2-oxo-1-oxa-3,8-diaza-spiro[4.5]dec-6-yl}-acetic acid methyl ester] | – | MIC [1]: 2 µg/mL (≈ 3.55 µM)
COc1ccc2nccc([C@@H](O)CN3CC[C@]4(CN(c5ccc6c(c5)OCCO6)C(=O)O4)[C@H](CCO)C3)c2c1 (racemic) [Example 8, (5RS, 6RS)-3-(2,3-dihydro-benzo[1,4]dioxin-6-yl)-6-(2-hydroxy-ethyl)-8-[(2RS)-2-hydroxy-2-(6-methoxy-quinolin-4-yl)-ethyl]-1-oxa-3,8-diaza-spiro[4.5]decan-2-one] | – | MIC [1]: 1 µg/mL (≈ 1.87 µM)
COc1ccc2nccc(OCC3CCC4(CC3)CN(c3ccc5c(c3)OCCO5)C(=O)O4)c2c1 (stereo not drawn) [Example 2, cis-3-(2,3-dihydro-benzo[1,4]dioxin-6-yl)-8-(6-methoxy-quinolin-4-yloxymethyl)-1-oxa-3-aza-spiro[4.5]decan-2-one] | 0.25 mg/L (≈ 0.525 µM) | –
COc1ccc2nccc(CCC3(O)CCC4(CC3)CN(c3ccc5c(c3)NC(=O)CS5)C(=O)O4)c2n1 (stereo not drawn) [Example 13, cis or trans-6-{8-hydroxy-8-[2-(6-methoxy-[1,5]naphthyridin-4-yl)-ethyl]-2-oxo-1-oxa-3-aza-spiro[4.5]dec-3-yl}-4H-benzo[1,4]thiazin-3-one] | ≦0.031 mg/l | –
COc1ccc2nccc(CCC3(O)CCC4(CC3)CN(c3ccc5c(c3)NC(=O)CO5)C(=O)O4)c2n1 (stereo not drawn) [Example 15, cis or trans-6-{8-hydroxy-8-[2-(6-methoxy-[1,5]naphthyridin-4-yl)-ethyl]-2-oxo-1-oxa-3-aza-spiro[4.5]dec-3-yl}-4H-benzo[1,4]oxazin-3-one] | ≦0.031 mg/l | –
COc1ccc2ncnc(OC[C@H]3CC[C@@]4(CC3)CN(c3ccc5c(c3)OCCO5)C(=O)O4)c2c1 [Example 19, cis-3-(2,3-dihydro-benzo[1,4]dioxin-6-yl)-8-(6-methoxy-quinazolin-4-yloxymethyl)-1-oxa-3-aza-spiro[4.5]decan-2-one] | 0.125 mg/L (≈ 0.262 µM) | MIC M. catarrhalis A894 [2]: 0.5 mg/L (≈ 1.05 µM); MIC S. aureus A798 [1]: 0.125 mg/L (≈ 0.262 µM); MIC S. pneumoniae 49619 [3]: 0.25 mg/L (≈ 0.524 µM)
(5R,6R,8S)-3-(2,3-dihydro-benzo[1,4]dioxin-6-yl)-8-[(2R)-2-hydroxy-2-(6-methoxy-[1,5]naphthyridin-4-yl)-ethyl]-6-hydroxymethyl-1,7-dioxa-3-aza-spiro[4.5]decan-2-one and (5R,6R,8S)-3-(2,3-dihydro-benzo[1,4]dioxin-6-yl)-8-[(2S)-2-hydroxy-2-(6-methoxy-[1,5]naphthyridin-4-yl)-ethyl]-6-hydroxymethyl-1,7-dioxa-3-aza-spiro[4.5]decan-2-one [Example 1] | 0.5 mg/L | –

More lines, main results first:

MIC S. aureus A798 ([1]; second table) | Molecule | further results
≦0.031 mg/l | COc1ccc2nccc(NC(=O)C3CCC4(CC3)CN(c3ccc5c(c3)OCCO5)C(=O)O4)c2n1 (mixture of isomers) [Example 9, cis/trans-3-(2,3-dihydro-benzo[1,4]dioxin-6-yl)-2-oxo-1-oxa-3-aza-spiro[4.5]decane-8-carboxylic acid (6-methoxy-[1,5]naphthyridin-4-yl)-amide] | –
≦0.031 mg/l | COc1ccc2nccc(CCC3CCC4(CC3)CN(c3ccc5c(c3)NC(=O)CO5)C(=O)O4)c2n1 (mixture of isomers) [Example 16, cis/trans-6-{8-[2-(6-methoxy-[1,5]naphthyridin-4-yl)-ethyl]-2-oxo-1-oxa-3-aza-spiro[4.5]dec-3-yl}-4H-benzo[1,4]oxazin-3-one] | –
≦0.031 mg/l | COc1ccc2nccc(/C=C/C3CCC4(CC3)CN(c3ccc5c(c3)NC(=O)CS5)C(=O)O4)c2c1 (mixture of isomers) [Example 18, cis/trans-6-{8-[(E)-2-(6-methoxy-quinolin-4-yl)-vinyl]-2-oxo-1-oxa-3-aza-spiro[4.5]dec-3-yl}-4H-benzo[1,4]thiazin-3-one] | MIC M. catarrhalis A894 [2]: ≦0.031 mg/l; MIC S. aureus A798 [1]: ≦0.031 mg/l; MIC S. pneumoniae 49619 [3]: 0.125 mg/L
2 mg/L (≈ 4.19 µM) | COc1ccc2nccc(OCC3CCC4(CC3)CN(c3ccc5c(c3)OCCO5)C(=O)O4)c2n1 (stereo not drawn) [Example 3, cis-3-(2,3-dihydro-benzo[1,4]dioxin-6-yl)-8-(6-methoxy-[1,5]naphthyridin-4-yloxymethyl)-1-oxa-3-aza-spiro[4.5]decan-2-one] | –
0.125 mg/L (≈ 0.254 µM) | COc1ccc2nccc(CCC3(O)CCC4(CC3)CN(c3ccc5c(c3)OCCO5)C(=O)O4)c2n1 (stereo not drawn) [Example 10, cis or trans-3-(2,3-dihydro-benzo[1,4]dioxin-6-yl)-8-hydroxy-8-[2-(6-methoxy-[1,5]naphthyridin-4-yl)-ethyl]-1-oxa-3-aza-spiro[4.5]decan-2-one] | –
0.25 mg/L (≈ 0.509 µM) | COc1ccc2nccc(CCC3(O)CCC4(CC3)CN(c3ccc5c(c3)OCCO5)C(=O)O4)c2n1 (stereo not drawn) [Example 11, cis or trans-3-(2,3-dihydro-benzo[1,4]dioxin-6-yl)-8-hydroxy-8-[2-(6-methoxy-[1,5]naphthyridin-4-yl)-ethyl]-1-oxa-3-aza-spiro[4.5]decan-2-one] | –
≦0.031 mg/l | COc1ccc2nccc(CCC3(O)CCC4(CC3)CN(c3ccc5c(c3)NC(=O)CS5)C(=O)O4)c2n1 (stereo not drawn) [Example 12, cis or trans-6-{8-hydroxy-8-[2-(6-methoxy-[1,5]naphthyridin-4-yl)-ethyl]-2-oxo-1-oxa-3-aza-spiro[4.5]dec-3-yl}-4H-benzo[1,4]thiazin-3-one] | –
≦0.031 mg/l | COc1ccc2nccc(CCC3(O)CCC4(CC3)CN(c3ccc5c(c3)NC(=O)CO5)C(=O)O4)c2n1 (stereo not drawn) [Example 14, cis or trans-6-{8-hydroxy-8-[2-(6-methoxy-[1,5]naphthyridin-4-yl)-ethyl]-2-oxo-1-oxa-3-aza-spiro[4.5]dec-3-yl}-4H-benzo[1,4]oxazin-3-one] | –
